Source: ChEMBL document CHEMBL3507680, “University of Dundee, Gates Library screen for HepG2 cell viability”

Assay: Human HepG2 cell viability assay in 384 well format
Assay type: toxicity, cell-based
Parameters: dose 125 nL, time 70.5 hour; cytotoxicity at 70.5 h: concentration not given beside the values
Conditions: HepG2 cells, read-out: Inhibition

SMILES | cytotoxicity at 70.5 h [%]
O=C(O)C1CCCN1c1nc(-c2ccc(Cl)c(Cl)c2)cc(C(F)(F)F)n1 (stereo not drawn) | -3.95
Cc1nocc1C(=O)N1CCCC2(CCN(c3cnn(C)c3)C2=O)C1 (stereo not drawn) | -3.71
Cc1ccc(CN2C[C@@H]3COC[C@]3(COc3ccc(C#N)cn3)C2)o1 | 7.17
Cc1cc(C(=O)NCC(C)C)nn1C | -5.81
CCn1cc(C(=O)NCc2ccc3c(c2)OCO3)c(C)n1 | -1.15
CCn1cc(CNc2ccc(F)c(F)c2)cn1 | 8.3
O=C(O)Cn1nc(C2CC2)c2c(-c3ccc(F)cc3)ccnc21 | -10.6
COC(=O)c1ccc(OC)c(Cn2cc(Br)cn2)c1 | -16.7
Cc1nn(C)cc1-c1cc(C(F)(F)F)nn1CCC#N | -1.92
Cc1ccc(Cn2nc(C)c3c(C(=O)O)c(Cl)c(C)nc32)cc1 | -12.9
COC(=O)c1c(Cl)c(C2CC2)nc2onc(C)c12 | 2.98
COC(=O)c1cc(C2CC2)nc2c(Cl)cnn12 | 24.9
Cc1c(-c2cc(C(F)(F)F)nc(N3CCC(N)CC3)n2)cnn1C | 32.2
CNC(=O)Cc1n[nH]c(-c2cncc(Br)c2)n1 | 27.1
CCOC(=O)Cc1n[nH]c(-c2cncc(Br)c2)n1 | 7.76
O=C(O)CCCC(=O)Nc1cnn(COc2ccc(F)cc2Cl)c1 | 7.18
Cc1ccnc(NC(=O)CCc2cnn(C)c2C)c1 | -4.47
O=C(O)CCC(=O)Nc1nn(Cc2ccccc2Cl)cc1Cl | -5.22
CCN(CC)C(=O)c1ccn(COc2ccc(F)cc2)n1 | -10.8
COCCNc1cc(C)nn2cnnc12 | 11.1
CC(=O)Nc1ncc(S(=O)(=O)Nc2ccccc2)s1 | -11.1
CC(=O)Nc1ncc(S(=O)(=O)Nc2cccc(C)c2)s1 | -12.5
COCCCNc1cc(C)nn2cnnc12 | -4.69
C=C/C=c1\c(=C/C)oc2c(NCc3ccccc3)nc(CC)nc12 | 11.2

SMILES | cytotoxicity at 70.5 h [%]
O=C(CSc1nc2nncc-2c(O)n1-c1ccccc1)N1CCOCC1 | -10.6
CN1CCc2nc3c(c(N)c2C1)CCCN3C | -16.1
Cc1c(CN2CCOCC2)c(O)n(CCc2ccccc2)c(=O)c1C#N | -9.75
CCc1ccc(NC(=O)c2n[nH]c(-n3cnnc3)n2)cc1 | -6.66
COCC(=O)Nc1nn(Cc2ccc(F)cc2)cc1Cl | -5.91
CCN(CC)C(=O)c1ccn(COc2ccc(F)cc2F)n1 | -7.67
CCC(C)NC(=O)c1ccn(COc2ccccc2Cl)n1 (stereo not drawn) | -1.06
CCN(Cc1nonc1C)C(=O)c1ccc(Br)o1 | -4.49
Cc1c2nnn(CC(=O)N(C)C)c(=O)c2nn1C | -8.25
Cc1nn(C)c2c(=O)n(Cc3ccc(Cl)cc3)nnc12 | -9.56
Cc1nn(C)c2c(NCc3cccnc3)nc(C(C)C)nc12 | 12.4
COc1ccccc1Nc1nc2c(C)nn(C)c2c(=O)n1C | 26.9
COc1ccc(Nc2nc3c(C)nn(C)c3c(=O)n2C)c(C)c1 | 0.529
CCn1c(NCc2ccccn2)nc2c(C)nn(C)c2c1=O | -3.41
CCn1c(NCc2cccnc2)nc2c(C)nn(C)c2c1=O | -4.56
CCn1c(NCc2ccc(OC)cc2)nc2c(C)nn(C)c2c1=O | -6.73
Cc1nn(C)c2c(=O)n(C(C)C)c(NCC3CCCO3)nc12 (stereo not drawn) | -9.24
CCCn1c(N2CCCC(C)C2)nc2c(C)nn(C)c2c1=O (stereo not drawn) | -14.3
O=C(c1n[nH]cc1Cl)N1CCOCC1 | -6.1
CC(C)(CO)NCc1nn(Cc2ccccc2)nc1-c1ccccc1 | 27.2
c1cc(-c2ccc3c(c2)CCC32CCN(c3nncs3)CC2)ccn1 | -2.69
c1cncc(O[C@H]2CC[C@H]3[C@H]2OCCN3C2CCC2)c1 | -3.23
CN1CC(=O)N(c2cnn(C)c2)CC12CCN(Cc1cccs1)C2 (stereo not drawn) | -1.01
O=C(O)c1cnc2c(Br)cccc2c1O | -5.88
